The results in this text go back to US20040224958A1, “Pyridopyrimidinone derivatives for treatment of neurodegenerative disease” (priority 2000, published 2004).

One experiment concerns the target Cdk5/p25 (Homo sapiens, UniProt Q00535). Briefly: Cyclin-Dependent Kinase 5 High Throughput Screening (cdk5-HTS) Assay. The format is biochemical. The following applies: high throughput screen. The method in brief:
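IC50 determined from 33P incorporation into GST-RbCOOH captured on glutathione plates and read by scintillation counting. Reaction: 1.0 μg/mL Cdk5/p25, 20 μM [γ33P]ATP, pH 7.4 Tris buffer with MgCl2 and DTT, 30 min at room temperature, stopped with EDTA.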

Another experiment deals with cdk2/cyclinE (Homo sapiens, UniProt P24941). Briefly: Cyclin-Dependent Kinase Assay cdk2/cyclinE. The settings on record: cdk2/E IC50.
In a further experiment the target is cdk4/D (Homo sapiens, UniProt P11802). Description: Cyclin-Dependent Kinase 4 (cdk4) Assay. It counts as biochemical. The settings on record: read-out: cdk4/D IC50.
A further experiment addresses cdk2/cyclinA (Homo sapiens, UniProt P24941). Briefly: Cyclin-Dependent Kinase Assay cdk2/cyclinA. The following applies: cdk2/A IC50.
The next experiment deals with cdc2/cyclinB (Homo sapiens, UniProt P06493). Description: Cyclin-Dependent Kinase Assay cdc2/cyclinB.
cdc2/cyclinB, sequence (P06493 whole entry): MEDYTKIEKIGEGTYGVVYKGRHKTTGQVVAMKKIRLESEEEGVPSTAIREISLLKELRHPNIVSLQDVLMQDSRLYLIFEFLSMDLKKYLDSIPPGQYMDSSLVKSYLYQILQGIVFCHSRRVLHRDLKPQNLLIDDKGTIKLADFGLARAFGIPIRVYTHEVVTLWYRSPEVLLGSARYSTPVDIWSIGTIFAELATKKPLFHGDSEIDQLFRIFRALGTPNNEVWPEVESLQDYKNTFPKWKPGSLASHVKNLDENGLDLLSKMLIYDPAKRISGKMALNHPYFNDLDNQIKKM
cdc2/cyclinB, sequence (P14635 whole entry, further chain): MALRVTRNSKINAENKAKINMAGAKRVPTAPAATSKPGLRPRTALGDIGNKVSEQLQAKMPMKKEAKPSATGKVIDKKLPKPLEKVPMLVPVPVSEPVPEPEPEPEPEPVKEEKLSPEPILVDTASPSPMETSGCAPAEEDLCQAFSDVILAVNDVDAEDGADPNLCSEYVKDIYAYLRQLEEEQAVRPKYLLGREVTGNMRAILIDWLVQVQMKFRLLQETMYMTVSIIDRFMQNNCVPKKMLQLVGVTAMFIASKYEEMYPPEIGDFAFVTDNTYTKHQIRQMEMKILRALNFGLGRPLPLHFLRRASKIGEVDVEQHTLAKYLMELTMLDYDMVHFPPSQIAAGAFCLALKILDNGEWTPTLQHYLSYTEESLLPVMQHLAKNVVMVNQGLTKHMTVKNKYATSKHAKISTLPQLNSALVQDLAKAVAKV

cdk4/D, sequence (P11802 whole entry): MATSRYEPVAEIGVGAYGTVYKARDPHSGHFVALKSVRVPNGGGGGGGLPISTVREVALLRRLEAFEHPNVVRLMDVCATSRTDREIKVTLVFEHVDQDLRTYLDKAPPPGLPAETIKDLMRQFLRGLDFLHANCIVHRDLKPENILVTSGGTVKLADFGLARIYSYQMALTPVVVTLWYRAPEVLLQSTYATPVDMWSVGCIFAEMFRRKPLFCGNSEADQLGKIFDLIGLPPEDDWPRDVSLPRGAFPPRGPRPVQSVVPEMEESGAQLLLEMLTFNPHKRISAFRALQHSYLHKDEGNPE
cdk4/D, sequence (P24385 whole entry, further chain): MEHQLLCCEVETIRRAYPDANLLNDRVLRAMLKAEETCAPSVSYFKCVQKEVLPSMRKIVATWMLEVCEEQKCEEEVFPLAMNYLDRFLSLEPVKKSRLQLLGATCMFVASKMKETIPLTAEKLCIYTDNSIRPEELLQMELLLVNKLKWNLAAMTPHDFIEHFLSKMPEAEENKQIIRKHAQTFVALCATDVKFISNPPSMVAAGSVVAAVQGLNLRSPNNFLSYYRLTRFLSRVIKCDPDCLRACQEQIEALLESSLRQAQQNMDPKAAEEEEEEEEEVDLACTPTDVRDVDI
Procedure for cdk2/cyclinE: Cyclin-Dependent Kinase Assays (cdk2/cyclinE, cdk2/cyclinA, cdc2/cyclinB)
All components except the ATP were added to the wells, and the plate was placed on a plate mixer for 2 minutes. The reaction was begun by addition of [^32P]ATP, and the plate was incubated at 25° C. for 15 minutes. The reaction was terminated by addition of 0.1 mL of 20% TCA. The plate was kept at 4° C. for at least 1 hour to allow the substrate to precipitate. The wells were then washed five times with 0.2 mL of 10% TCA and ^32p incorporation determined with a beta plate counter (Wallac Inc., Gaithersburg, Md.).

With `CCCn1c(=O)ccc2cnc(Nc3ccc(OC)cc3)nc21` [Example 329, 2-(4-Methoxy-phenylamino)-8-propyl-8H-pyrido[2,3-d]pyrimidin-^7-one], the IC50 is 160 nM against Cdk5/p25; 275 nM at cdk2/cyclinE; 315 nM at cdk4/D; 425 nM against cdk2/cyclinA; 320 nM at cdc2/cyclinB.

With `CCCn1c(=O)ccc2cnc(Nc3cccc([N+](=O)[O-])c3)nc21` [Example 330, 2-(3-Nitro-phenylamino)-8-propyl-8H-pyrido[2,3-d]pyrimidin-7-one], the IC50 was found to be 435 nM on Cdk5/p25; 370 nM on cdk2/cyclinE; 2100 nM at cdk4/D; 1150 nM against cdk2/cyclinA; 940 nM at cdc2/cyclinB.

As to `CCCn1c(=O)ccc2cnc(Nc3ccc(OC)c(OC)c3)nc21` [Example 331, 2-(3,4-Dimethoxy-phenylamino)-8-propyl-8H-pyrido[2,3-d]pyrimidin-7-one], the IC50 came to 160 nM against Cdk5/p25; 950 nM against cdk2/cyclinE; 2000 nM on cdk4/D; 875 nM against cdk2/cyclinA; 415 nM against cdc2/cyclinB.

In the case of `CCCn1c(=O)ccc2cnc(Nc3ccc(F)cc3)nc21` [Example 332, 2-(4-Fluoro-phenylamino)-8-propyl-8H-pyrido[2,3-d]pyrimidin-7-one], the IC50 against Cdk5/p25 came out at 590 nM; on cdk2/cyclinE, 417 nM; on cdk4/D, 2050 nM; on cdk2/cyclinA it was 1310 nM; against cdc2/cyclinB, 1050 nM.

Consider `CCCn1c(=O)ccc2cnc(Nc3cc([N+](=O)[O-])ccc3F)nc21` [Example 333, 2-(2-Fluoro-5-nitro-phenylamino)-8-propyl-8H-pyrido[2,3-d]pyrimidin-7-one], for which the IC50 is 260 nM against Cdk5/p25; 340 nM against cdk2/cyclinE; 670 nM on cdk4/D; 1700 nM against cdk2/cyclinA; 1300 nM on cdc2/cyclinB.

Turning to `CCCn1c(=O)ccc2cnc(Nc3ccc(F)c(C(F)(F)F)c3)nc21` [Example 335, 2-(4-Fluoro-3-trifluoromethyl-phenylamino)-8-propyl-8H-pyrido[2,3-d]pyrimidin-7-one], the IC50 against Cdk5/p25 is 340 nM; at cdk2/cyclinE, 160 nM; at cdk4/D it was 1600 nM; against cdk2/cyclinA, 1100 nM; against cdc2/cyclinB, 250 nM.

For the compound `CCCn1c(=O)ccc2cnc(Nc3ccc(OC)c(O)c3)nc21` [Example 336, 2-(3-Hydroxy-4-methoxy-phenylamino)-8-propyl-8H-pyrido[2,3-d]pyrimidin-7-one], the IC50 at Cdk5/p25 was 74 nM; against cdk2/cyclinE, 120 nM; on cdk4/D, 2400 nM; on cdk2/cyclinA, 1700 nM; against cdc2/cyclinB, 320 nM.

On to `CCCn1c(=O)ccc2cnc(Nc3ccc(F)c(C)c3)nc21` [Example 337, 2-(4-Fluoro-3-methyl-phenylamino)-8-propyl-8H-pyrido[2,3-d]pyrimidin-7-one], for which the IC50 was 150 nM against Cdk5/p25; 25 nM against cdk2/cyclinE; 430 nM on cdk4/D; 100 nM against cdk2/cyclinA; 150 nM on cdc2/cyclinB.

With `CCCn1c(=O)ccc2cnc(Nc3ccc(OC)c(F)c3)nc21` [Example 338, 2-(3-Fluoro-4-methoxy-phenylamino)-8-propyl-8H-pyrido[2,3-d]pyrimidin-7-one], the IC50 at Cdk5/p25 is 48 nM; at cdk2/cyclinE it was 170 nM; on cdk4/D, 270 nM; on cdk2/cyclinA it was 340 nM; against cdc2/cyclinB it was 570 nM.

Take `CCCn1c(=O)ccc2cnc(Nc3ccc(C#N)c(NC(C)=O)c3)nc21` [Example 340, N-[2-Cyano-5-(7-oxo-8-propyl-7,8-dihydro-pyrido[2,3-d]pyrimidin-2-ylamino)-phenyl]-acetamide]: the IC50 at Cdk5/p25 came out at 170 nM; against cdk2/cyclinE, 350 nM; at cdk4/D, 310 nM; at cdk2/cyclinA, 960 nM; against cdc2/cyclinB, 1300 nM.

In the case of `CCCn1c(=O)ccc2cnc(Nc3ccc(Br)c(Cl)c3)nc21` [Example 341, 2-(4-Bromo-3-chloro-phenylamino)-8-propyl-8H-pyrido[2,3-d]pyrimidin-7-one], the IC50 turned out to be 92 nM on Cdk5/p25; 280 nM at cdk2/cyclinE; 420 nM at cdk4/D; 890 nM on cdk2/cyclinA; 520 nM on cdc2/cyclinB.

Take `CCCn1c(=O)ccc2cnc(Nc3ccc(I)c(Cl)c3)nc21` [Example 344, 2-(3-Chloro-4-iodo-phenylamino)-8-propyl-8H-pyrido[2,3-d]pyrimidin-7-one]: the IC50 is 46 nM against Cdk5/p25; 470 nM at cdk2/cyclinE; 370 nM at cdk4/D; 990 nM against cdk2/cyclinA; 360 nM against cdc2/cyclinB.

Turning to `CCCn1c(=O)ccc2cnc(Nc3ccc(N(C)C(C)=O)cc3)nc21` [Example 345, N-Methyl-N-[4-(7-oxo-8-propyl-7,8-dihydro-pyrido[2,3-d]pyrimidin-2-ylamino)-phenyl]-acetamide], the IC50 against Cdk5/p25 worked out at 160 nM; at cdk2/cyclinE, 430 nM; at cdk4/D it was 160 nM; at cdk2/cyclinA, 830 nM; against cdc2/cyclinB, 590 nM.

Turning to `CCCn1c(=O)ccc2cnc(Nc3cc(C)cc(C)c3)nc21` [Example 346, 2-(3,5-Dimethyl-phenylamino)-8-propyl-8H-pyrido[2,3-d]pyrimidin-7-one], the IC50 against Cdk5/p25 was found to be 29 nM; against cdk2/cyclinE, 260 nM; at cdk4/D, 310 nM; at cdk2/cyclinA it was 450 nM; at cdc2/cyclinB it was 61 nM.

Turning to `CCCn1c(=O)ccc2cnc(Nc3ccc(C)c(Cl)c3)nc21` [Example 347, 2-(3-Chloro-4-methyl-phenylamino)-8-propyl-8H-pyrido[2,3-d]pyrimidin-7-one], the IC50 against Cdk5/p25 was 35 nM; at cdk2/cyclinE it was 120 nM; at cdk4/D, 58 nM; against cdk2/cyclinA it was 580 nM; against cdc2/cyclinB, 140 nM.

With `CCCn1c(=O)ccc2cnc(Nc3cccc(S(N)(=O)=O)c3)nc21` [Example 348, 3-(7-Oxo-8-propyl-7,8-dihydro-pyrido[2,3-d]pyrimidin-2-ylamino)-benzenesulfonamide], the IC50 was 13 nM against Cdk5/p25; 49 nM against cdk2/cyclinE; 14 nM at cdk4/D; 170 nM against cdk2/cyclinA; 62 nM on cdc2/cyclinB.

With `CCCn1c(=O)ccc2cnc(Nc3ccc(F)c([N+](=O)[O-])c3)nc21` [Example 351, 2-(4-Fluoro-3-nitro-phenylamino)-8-propyl-8H-pyrido[2,3-d]pyrimidin-7-one], the IC50 against Cdk5/p25 was determined as 310 nM; against cdk2/cyclinE, 560 nM; at cdk4/D, 1200 nM; against cdk2/cyclinA it was 1300 nM; on cdc2/cyclinB it was 700 nM.

On to `CCCn1c(=O)ccc2cnc(Nc3ccc(O)c(C)c3)nc21` [Example 354, 2-(4-Hydroxy-3-methyl-phenylamino)-8-propyl-8H-pyrido[2,3-d]pyrimidin-7-one], for which the IC50 against Cdk5/p25 worked out at 770 nM; against cdk2/cyclinE it was 1200 nM; at cdk4/D it was 910 nM; against cdk2/cyclinA it was 1100 nM; against cdc2/cyclinB it was 1600 nM.

For the compound `CCCn1c(=O)ccc2cnc(Nc3ccc4c(c3)C(C)C(C)N4)nc21` (stereo not drawn) [Example 356, 2-(2,3-Dimethyl-2,3-dihydro-1H-indol-5-ylamino)-8-propyl-8H-pyrido[2,3-d]pyrimidin-7-one], the IC50 is 61 nM against Cdk5/p25; 510 nM against cdk2/cyclinE; 290 nM at cdk4/D; 470 nM on cdk2/cyclinA; 410 nM at cdc2/cyclinB.

For `CCCn1c(=O)ccc2cnc(Nc3ccc4c(c3)CCN4)nc21` [Example 357, 2-(2,3-Dihydro-1H-indol-5-ylamino)-8-propyl-8H-pyrido[2,3-d]pyrimidin-7-one], the IC50 against Cdk5/p25 was determined as 290 nM; against cdk2/cyclinE, 700 nM; at cdk4/D, 360 nM; at cdk2/cyclinA, 1600 nM; against cdc2/cyclinB, 2100 nM.

As for `CCCn1c(=O)ccc2cnc(Nc3ccc4cn[nH]c4c3)nc21` [Example 358, 2-(1H-Indazol-6-ylamino)-8-propyl-8H-pyrido[2,3-d]pyrimidin-7-one], the IC50 on Cdk5/p25 came to 90 nM; on cdk2/cyclinE, 180 nM; on cdk4/D, 300 nM; against cdk2/cyclinA it was 83 nM; against cdc2/cyclinB, 160 nM.

Take `CCCn1c(=O)ccc2cnc(Nc3cc(F)c(F)c(F)c3)nc21` [Example 359, 8-Propyl-2-(3,4,5-trifluoro-phenylamino)-8H-pyrido[2,3-d]pyrimidin-7-one]: the IC50 came to 180 nM at Cdk5/p25; 450 nM on cdk2/cyclinE; 1800 nM at cdk4/D; 430 nM on cdk2/cyclinA; 390 nM at cdc2/cyclinB.

For `CCCn1c(=O)ccc2cnc(Nc3ccc(Br)c(C)c3)nc21` [Example 360, 2-(4-Bromo-3-methyl-phenylamino)-8-propyl-8H-pyrido[2,3-d]pyrimidin-7-one], the IC50 worked out at 86 nM against Cdk5/p25; 990 nM at cdk2/cyclinE; 390 nM at cdk4/D; 1000 nM at cdk2/cyclinA; 340 nM against cdc2/cyclinB.

`CCCn1c(=O)ccc2cnc(Nc3ccc(C(F)(F)F)cc3)nc21` [Example 361, 8-Propyl-2-(4-trifluoromethyl-phenylamino)-8H-pyrido[2,3-d]pyrimidin-7-one]: the IC50 on Cdk5/p25 is 150 nM; at cdk2/cyclinE, 440 nM; on cdk4/D, 350 nM; at cdk2/cyclinA, 310 nM; at cdc2/cyclinB, 180 nM.
